Laboratory results reported in patent US20240285671A1, “SEQUENTIAL INNATE AND ADAPTIVE IMMUNE MODULATION FOR CANCER TREATMENT” (Gentechnologiestiftung- Dr. Georg und Ingeburg Scheel …, priority 2021, published 2024).
Read-outs that look alike come from different tables or passages of the source. Marks after values point to notes of the source that are not given here.

Assays:
[1] = system: extensive stage small cell lung cancer; conditions: IMpower133 treatment arm, ITT, with chemotherapy; cited from earlier work
[2] = system: extensive stage small cell lung cancer; conditions: CASPIAN treatment arm, ITT, with chemotherapy; cited from earlier work
[3] = system: extensive stage small cell lung cancer; assay: IMPULSE phase II trial (NCT02200081), switch maintenance vs continuation maintenance, survival; type: in vivo, human
Excerpt: An international, multicentre, open-label phase II trial conducted on 102 extensive stage small cell lung cancer after platinum based first line therapy patients. Patients who had received four cycles of first line induction chemotherapy (platinum-based) were randomized to receive either combination lefitolimod maintenance therapy, or local standard of care (control). After progression, patients received second line therapy.
The phase II IMPULSE study explored the benefit in OS of an immunotherapeutic switch maintenance therapy of ES-SCLC by the TLR9 agonist lefitolimod (dSLIM-30L1). In comparison to the various local standards of care (SoC), typically carboplatin plus etoposide, or cisplatin plus etoposide. […] A combinatorial post hoc analyses was performed of all accessible immunological data and relevant clinical parameters of the IMPLUSE study. Additionally, in order to determine in what conditions adaptive or innate immune stimulation may enhance chemotherapy outcomes, published mPFS and mOS data from the respective treatment and control arms for chemotherapy immunomodulation maintenance studies utilizing PD-L1 inhibitor-antibodies were incorporated, comparing the use of checkpoint inhibitors with the TLR9 agonist used in IMPULSE.
All lung cancer trials used (IMPULSE, IMpower133, CASPIAN, Keynote-604, and EA5161) are “maintenance” trials, wherein an immune induction treatment, a set of chemotherapy cycles, is applied to initiate anti-tumour responses (as defined by RECIST guidelines), followed by maintenance therapy until tumour progress. IMpower133, CASPIAN, Keynote-604, and EA5161 are “continuation maintenance” trials, whereas IMPULSE is a “switch maintenance” trial. In the four continuation maintenance trials, the immunomodulatory product (IMP), i.e., the respective […] checkpoint inhibitors (CPI) atezolizumab, durvalumab, pembrolizumab, or nivolumab, are present during induction chemotherapy and in the maintenance phase. In the switch maintenance trial IMPULSE, the IMP lefitolimod is not used during induction chemotherapy but introduced (“switched” to) in the maintenance phase of the trial (FIG. 1). Thus, for comparison of IMPULSE PFS and OS data with the other studies, IMPULSE mPFS1 and mOS1 were factored from the start of induction chemotherapy. Therefore, for all following analyses, the respective mOS1 values of IMPULSE are used.

[4] = system: metastatic colorectal cancer; assay: IMPALA phase III trial (NCT02077868), progression-free survival; type: in vivo, human
Excerpt: An international, multicentre, open-label phase III trial conducted on 549 metastatic colorectal cancer patients in 8 EU countries. […] After progression, patients started re-induction therapy, with those in the experimental arm continuing to receive lefitolimod in addition.

[5] = system: Regulatory T cells (% of CD4+ T cells); assay: Regulatory T cells in blood of IMPULSE patients, flow cytometry; type: in vivo, human
[6] = system: extensive stage small cell lung cancer; conditions: EA5161 treatment arm, ITT, with chemotherapy; cited from earlier work
[7] = system: extensive stage small cell lung cancer; conditions: Keynote-604 treatment arm, ITT, with chemotherapy; cited from earlier work
[8] = Baseline, end of 4th cycle of induction PE chemotherapy
[9] = Visit 2, days 118-125 from start of induction PE chemotherapy
[10] = Visit 3, days 146-153 from start of induction PE chemotherapy
[11] = Visit 4, days 188-195 from start of induction PE chemotherapy

Substance: Atezolizumab: PD-L1 inhibiting antibody (Roche AG; CAS No. 1380723-44-3), IMpower133 trial
- mOS treatment [1]: 12.3 m

Substance: Durvalumab: PD-L1 inhibiting antibody (Astra Zeneca, CAS No. 1428935-60-7), CASPIAN trial
- mOS treatment [2]: 13.0 m

Substance: Lefitolimod
- mOS treatment ([3]; IMPULSE treatment arm, ITT, mOS1 calculated from start of induction chemotherapy): 12.4* m
- gain in mOS ([3]; OS1, 5 cycles vs 4 cycles of PE chemotherapy followed by TLR9 agonist (FIG. 2)): 2.3 m
- efficacy in terms of mOS ([3]; applied subsequent to platinum-based chemotherapy rather than in combination, IMPULSE compared to IMPALA): more efficacious
- mOS improved by ([3]; four qw3 PE cycles followed by a 5th cycle with PE in week 1 and TLR9 agonist in weeks 2 and 3 (FIG. 2)): 2.3 months
- PFS1 ([3]; full analysis set (FAS)): 6.1 months
- mOS1 ([3]; patient subgroup (FIG. 6)): 10.7 months
- mOS1 ([3]; patient subgroup with PFS threshold >6.2 months (FIG. 6)): 17.1 months
- benefit by mPFS or mOS compared to local standards of care ([3]; switch maintenance therapy, all patients): No additional benefit
- median OS in certain subgroups of patients ([3]; switch maintenance therapy, subgroups): strong median OS improvements
- mPFS compared to control ([4]; patients receiving re-induction treatment followed by cycles of chemotherapy and lefitolimod): significantly superior
- mPFS compared to the control arm ([4]; switch-maintenance therapy): inferior
- Regulatory T cells, Max [5, 8]: 12.22 % of CD4+ T cells
- Regulatory T cells, Mean [5, 8]: 7.3905 % of CD4+ T cells
- Regulatory T cells, Median [5, 8]: 7.470 % of CD4+ T cells
- Regulatory T cells, Min [5, 8]: 4.19 % of CD4+ T cells
- Regulatory T cells, Max [5, 9]: 13.65 % of CD4+ T cells
- Regulatory T cells, Mean [5, 9]: 8.2827 % of CD4+ T cells
- Regulatory T cells, Median [5, 9]: 8.100 % of CD4+ T cells
- Regulatory T cells, Min [5, 9]: 4.44 % of CD4+ T cells
- Regulatory T cells, Max [5, 10]: 13.06 % of CD4+ T cells
- Regulatory T cells, Mean [5, 10]: 8.7502 % of CD4+ T cells
- Regulatory T cells, Median [5, 10]: 8.905 % of CD4+ T cells
- Regulatory T cells, Min [5, 10]: 4.27 % of CD4+ T cells
- Regulatory T cells, Max [5, 11]: 16.33 % of CD4+ T cells
- Regulatory T cells, Mean [5, 11]: 9.5175 % of CD4+ T cells
- Regulatory T cells, Median [5, 11]: 9.205 % of CD4+ T cells
- Regulatory T cells, Min [5, 11]: 5.82 % of CD4+ T cells
- fraction of regulatory T cells (Treg) ([5]; over duration of treatment, IMPULSE): increases with duration

Substance: Nivolumab: checkpoint inhibitor antibody (Bristol-Myers Squibb; CAS No 946414-94-4), EA5161 trial
- mOS treatment [6]: 11.3 m

Substance: Pembrolizumab: checkpoint inhibitor antibody (Merck Inc.; CAS No. 1374853-91-4), Keynote-604 trial
- mOS treatment [7]: 10.8 m
